How the values were obtained:
BCRP mRNA = assay: RT-PCR of BCRP mRNA expression in transduced C2BBe1 cells; format: cell-based, human; details: between passages 5 and 20
Description: RT-PCR. Total RNA was extracted from cells according to the following protocol. Cells were harvested from culture by centrifugation, resuspended in 1 ml of TRIzol® reagent (Invitrogen, Carlsbad, Calif.), and incubated at room temperature for 5 minutes with gentle shaking. The suspension was transferred to a 1.5 ml centrifuge tube, to which 200 μl of Chloroform was added, followed by an additional 5 minute incubation period with shaking. After incubation, the suspension was centrifuged at 12,000×g for 12 minutes at 4° C. The supernatant was transferred to a fresh, sterile 1.5 ml centrifuge tube, and supplemented with 0.5 ml of 2-propanaol per 1 ml of TRIzol reagent, and incubated for 10 minutes at room temperature. The mixture was then centrifuged at 12,000×g for an additional 12 minutes at 4° C. After centrifugation, the supernatant was removed and the pellet was washed with 75% ethanol. […] RNA yield and purity were quantified by absorbance at 260 nm and 280 nm. […]
For RT-PCR, total cellular RNA was harvested as described in Examples 1 and 3 and amplified by RT-PCR using primers specific to BCRP mRNA (SEQ ID NOs: 13 and 14). The RT-PCR products were separated by electrophoresis on a 2% agarose gel and analyzed to determine whether shRNA/BCRP clone cells produced substantially less BCRP mRNA than C2BBe1 cells transduced with a non-interfering shRNA vector control.

P-gp mRNA = assay: RT-PCR of P-gp mRNA expression in transduced C2BBe1 cells; format: cell-based, human; details: for P-gp mRNA expression relative to control C2BBe1 cells: RT-PCR, shRNA/P-gp clone cells
Description: (§1) RT-PCR. Total RNA was extracted from cells according to the following protocol. Cells were harvested from culture by centrifugation, resuspended in 1 ml of TRIzol® reagent (Invitrogen, Carlsbad, Calif.), and incubated at room temperature for 5 minutes with gentle shaking. The suspension was transferred to a 1.5 ml centrifuge tube, to which 200 μl of Chloroform was added, followed by an additional 5 minute incubation period with shaking. After incubation, the suspension was centrifuged at 12,000×g for 12 minutes at 4° C. The supernatant was transferred to a fresh, sterile 1.5 ml centrifuge tube, and supplemented with 0.5 ml of 2-propanaol per 1 ml of TRIzol reagent, and incubated for 10 minutes at room temperature. The mixture was then centrifuged at 12,000×g for an additional 12 minutes at 4° C. After centrifugation, the supernatant was removed and the pellet was washed with 75% ethanol. The sample was re-centrifuged at 7500×g for 5 minutes at 4° C., followed by the removal of the supernatant. The pellet was allowed to air dry at room temperature. The pellet was resuspended in pre-warmed (55° C.) nuclease-free water, and incubated at 55° C. for 10 minutes. RNA yield and purity were quantified by absorbance at 260 nm and 280 nm.
(§2) RT-PCR mixtures were set up as 50 μl samples containing buffer, 1-2 μg of RNA, 10 μM of Forward primer, 10 μM of Reverse primer, Taq polymerase, and water. Primers to amplify human P-gylcoprotein were as follows: P-gp Forward 5′-[…]-3′ (SEQ ID NO: 9); and, P-gp Reverse 5′-[…]-3′ (SEQ ID NO: 10). Primers to amplify human MRP2 were as follows: MRP2 Forward 5′-[…]-3′ (SEQ ID NO: 11); and, MRP2 Reverse 5′-[…]-3′ (SEQ ID NO: 12). Primes to amplify human BCRP were as follows: BCRP Forward 5′-[…] 3′ (SEQ ID NO: 13); and, BCRP Reverse 5′-[…] 3′ (SEQ ID NO: 14). Human β-actin was amplified in parallel as a positive control using the following primers: β-actin Forward 5′-[…]-3′ (SEQ ID NO: 15); and, β-actin Reverse 5′-[…]-3′ (SEQ ID NO: 16).
(§3) The PCR cycles proceeded in a programmable thermocycler with the following parameters: cDNA synthesis, 1 cycle, 55° C. for 30 minutes; denaturation, 1 cycle, 94° C. for 2 minutes; PCR amplification, 40 cycles of 94° C. for 15 seconds, 62° C. for 30 seconds, 72° C. for 1 minute; and, final extension, 1 cycle, 72° C. for 5 minutes. Amplification was confirmed by electrophoresis in 2% agarose gels.
Gene expression of P-gp in knockdown cells (shRNA/P-gp clones #83, 84, 85, 86, and 87) was determined by observing P-gp mRNA content, protein content and protein functional activity. RT-PCR was used to determine the expression of the P-gp mRNA. Total cellular RNA was harvested and amplified using primers specific to P-gp mRNA. RT-PCR products were then separated by electrophoresis on a 2% agarose gel. It was determined that 4 of the 5 shRNA/P-gp clone cells contained substantially less P-gp mRNA than control C2BBe1 cells (FIG. 2, top panel). β-actin was amplified, in parallel, as a positive control, and its expression was not affected by the interfering shRNA (FIG. 2, bottom panel).

BCRP = target: T1, BCRP (Homo sapiens, UniProt Q9UNQ0); assay: Bidirectional transcellular transport of E3S (BCRP substrate) across C2BBe1-derived monolayers; details: compared to control cells
T1 sequence (Q9UNQ0 1-655): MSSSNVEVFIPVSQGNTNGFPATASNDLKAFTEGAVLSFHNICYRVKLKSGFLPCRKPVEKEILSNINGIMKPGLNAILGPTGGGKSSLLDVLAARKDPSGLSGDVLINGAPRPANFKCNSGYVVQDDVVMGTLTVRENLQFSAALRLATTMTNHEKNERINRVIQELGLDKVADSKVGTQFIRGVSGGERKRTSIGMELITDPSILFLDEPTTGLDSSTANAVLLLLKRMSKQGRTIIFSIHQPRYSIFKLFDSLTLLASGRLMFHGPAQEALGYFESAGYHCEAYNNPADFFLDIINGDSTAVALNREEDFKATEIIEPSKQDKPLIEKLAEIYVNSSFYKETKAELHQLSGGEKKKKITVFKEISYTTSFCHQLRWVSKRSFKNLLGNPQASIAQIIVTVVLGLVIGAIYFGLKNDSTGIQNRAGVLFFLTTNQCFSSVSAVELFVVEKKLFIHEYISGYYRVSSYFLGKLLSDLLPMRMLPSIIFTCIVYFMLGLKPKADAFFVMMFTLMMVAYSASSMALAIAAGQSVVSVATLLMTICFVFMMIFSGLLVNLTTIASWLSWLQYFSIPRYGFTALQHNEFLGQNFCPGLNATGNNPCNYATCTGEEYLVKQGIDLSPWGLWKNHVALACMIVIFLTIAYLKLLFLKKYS
Description: (§4) Bidirectional Transcellular Transport assay.
(§5) Each determination was performed in duplicate.
Each of the five shRNA/BCRP knockdown clone cells were seeded on transwells for three weeks for the transport assay.

MRP2 mRNA = assay: RT-PCR of MRP2 mRNA expression in transduced C2BBe1 cells; format: cell-based, human; details: cells passaged 20 times
Description: as §1, §2, §3
For this example, gene expression of MRP2 in C2BBe1 cells was determined by observing both the MRP2 mRNA content as well as the protein content of the cells following viral transduction. To examine mRNA content, total cellular RNA was harvested and amplified by RT-PCR using primers specific to the MRP2 gene (SEQ ID NO: 11 and 12). The RT-PCR products were then analyzed after separation by electrophoresis on a 2% agarose gel.
Vector control (VC) cells were prepared from cells transducted with lentiviruses encoding a non-interfering nucleic acid sequence (SEQ ID NO 27), as described in Example 7. Methods were described in Example 1. […]

P-gp [1] = target: T2, P-gp (Homo sapiens, UniProt P08183); assay: Calcein-AM assay; details: transduced C2BBe1 cells vs Un-KD
T2 sequence (P08183 whole entry): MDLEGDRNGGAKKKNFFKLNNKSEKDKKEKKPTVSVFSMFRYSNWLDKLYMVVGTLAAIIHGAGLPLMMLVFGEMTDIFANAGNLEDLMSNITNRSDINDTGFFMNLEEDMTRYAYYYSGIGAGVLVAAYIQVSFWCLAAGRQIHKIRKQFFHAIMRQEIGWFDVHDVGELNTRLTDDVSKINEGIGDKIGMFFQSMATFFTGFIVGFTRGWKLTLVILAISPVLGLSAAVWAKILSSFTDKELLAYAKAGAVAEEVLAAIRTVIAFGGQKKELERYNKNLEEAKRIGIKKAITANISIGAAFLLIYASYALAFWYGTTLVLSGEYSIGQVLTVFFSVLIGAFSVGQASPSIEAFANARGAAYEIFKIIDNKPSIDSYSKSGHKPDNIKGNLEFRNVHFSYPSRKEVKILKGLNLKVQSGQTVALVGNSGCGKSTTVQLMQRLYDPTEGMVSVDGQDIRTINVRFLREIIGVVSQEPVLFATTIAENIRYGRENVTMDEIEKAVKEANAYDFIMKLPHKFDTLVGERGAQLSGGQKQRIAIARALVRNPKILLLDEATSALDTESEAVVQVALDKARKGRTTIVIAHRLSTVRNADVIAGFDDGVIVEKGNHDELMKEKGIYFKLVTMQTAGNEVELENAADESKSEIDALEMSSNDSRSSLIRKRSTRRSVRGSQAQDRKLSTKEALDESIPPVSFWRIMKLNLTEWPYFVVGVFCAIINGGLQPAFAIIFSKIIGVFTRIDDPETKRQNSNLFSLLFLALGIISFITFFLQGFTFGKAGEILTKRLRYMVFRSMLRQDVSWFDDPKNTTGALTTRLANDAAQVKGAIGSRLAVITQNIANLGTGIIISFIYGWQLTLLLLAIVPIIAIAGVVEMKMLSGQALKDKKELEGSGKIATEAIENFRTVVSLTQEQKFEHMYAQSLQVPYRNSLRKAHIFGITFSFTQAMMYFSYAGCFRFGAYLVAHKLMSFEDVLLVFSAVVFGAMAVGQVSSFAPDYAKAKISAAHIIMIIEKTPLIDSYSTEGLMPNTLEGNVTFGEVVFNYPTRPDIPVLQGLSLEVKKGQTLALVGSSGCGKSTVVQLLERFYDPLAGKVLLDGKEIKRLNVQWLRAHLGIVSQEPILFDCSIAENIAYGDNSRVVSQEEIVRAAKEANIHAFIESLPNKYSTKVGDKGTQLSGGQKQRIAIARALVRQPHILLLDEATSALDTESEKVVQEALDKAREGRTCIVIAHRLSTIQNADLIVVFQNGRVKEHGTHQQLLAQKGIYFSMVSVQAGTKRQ
Description: Calcein-AM assay. To determine activity of the P-gp protein, calcein-AM assays were conducted.
To determine the P-gp activity, cells were plated in 96-well tissue culture plates and cultured for 48. After 48 hours, cell culture media was removed and the cells were washed with phosphate buffered saline solution (PBS). After washing, cells were incubated with 1 μM calcein-AM for 30 minutes. […] After incubation with calcein-AM, the cells were rinsed with fresh control buffer and fluorescence was measured using a Fluo-star fluorescence plate reader (BMG Lab Technologies, N.C.) with excitation and emission filters set at wavelengths of 485 nm and 538 nm, respectively.
Calcein-AM efflux is not mediated by BCRP. Therefore, any increase in calcein-AM uptake by the cells can be attributed to P-gp inhibition. The cells were plated in 96-well tissue culture plates and cultured for 48 hours. After 48 hours, cell culture media was removed and the cells were washed with phosphate buffered saline solution (PBS). After washing, cells were incubated with 1 μM calcein-AM for 30 minutes. […] After incubation with calcein-AM, the cells were rinsed with fresh control buffer and fluorescence was measured using a Fluo-star fluorescence plate reader (BMG Lab Technologies, N.C.) with excitation and emission filters set at wavelengths of 485 nm and 538 nm, respectively. The assay was carried out after each clone had been passaged 9 times.

in vitro [2] = details: human, Caco-2, pH 7.4
in vitro [3] = details: human, pH 7.4
P-gp [4] = target: T2, P-gp; assay: in vitro
Description: as §4, §5
The assay was carried out after each clone had been passaged 9 times.

| Compound | P-gp function by intracellular calcein fluorescence (P-gp [1]) | P-gp mRNA expression relative to control C2BBe1 cells (P-gp mRNA) | efflux ratio at 2 h (in vitro [2]) | efflux ratio at 2 h (in vitro [3]) | further results |
| --- | --- | --- | --- | --- | --- |
| shRNA/BCRP 801: 21-nucleotide sequence targeting human BCRP gene, SEQ ID NO: 25, lentivirally transduced into C2BBe1 cells; clone #801 (CCGGGCTGTGGCATTAAACAGAGAACTCGAGTTCTCTGTTTAATGCCACAGCTTTTTG; listed as Homo Sapiens) | – | – | – | – | BCRP mRNA knockdown over passages (BCRP mRNA): steadily increased; P-gp mRNA levels in shRNA/BCRP clone cells (P-gp mRNA; compared with #799 and control cells): higher; inhibition for BCRP function in E3S transport (BCRP): 96.43%; MRP2 mRNA levels in shRNA/BCRP clone cells (MRP2 mRNA): reduced |
| shRNA/P-gp #83: shRNA to human P-gp, SEQ ID NO: 1, lentivirally transduced into C2BBe1 cells; clone #83 (CCGGCCGAACACATTGGAAGGAAATCTCGAGATTTCCTTCCAATGTGTTCGGTTTTTG; listed as Homo Sapiens) | significantly decreased | significantly reduced | – | – | – |
| shRNA/P-gp #86: shRNA to human P-gp, SEQ ID NO: 4, lentivirally transduced into C2BBe1 cells; clone #86 (CCGGGCTCATCGTTTGTCTACAGTTCTCGAGAACTGTAGACAAACGATGAGCTTTTTG; listed as Homo Sapiens) | significantly decreased | significantly reduced | – | – | – |
| shRNA/P-gp #87: shRNA to human P-gp, SEQ ID NO: 5, lentivirally transduced into C2BBe1 cells; clone #87 (CCGGGCTGCTTTCCTGCTGATCTATCTCGAGATAGATCAGCAGGAAAGCAGCTTTTTG; listed as Homo Sapiens) | significantly decreased | significantly reduced | – | – | – |
| COc1cc([C@@H]2c3cc4c(cc3[C@@H](O[C@@H]3O[C@@H]5CO[C@@H](C)O[C@H]5[C@H](O)[C@H]3O)[C@H]3COC(=O)[C@H]23)OCO4)cc(OC)c1O [Etoposide] | – | – | 13.7 | 11.5 | – |
| shRNA/P-gp #85: shRNA to human P-gp, SEQ ID NO: 3, lentivirally transduced into C2BBe1 cells; clone #85 (CCGGCGACAGAATAGTAACTTGTTTCTCGAGAAACAAGTTACTATTCTGTCGTTTTTG; listed as Homo Sapiens) | significantly decreased | significantly reduced | – | – | – |
| Cc1cc(=O)n(-c2ccccc2)n1C [Antipyrine] | – | – | 0.84 | 0.92 | – |
| CNCCCN1c2ccccc2CCc2ccccc21 [Desipramine] | – | – | 5.59 | 6.84 | – |
| C[C@H]1O[C@@H](O[C@H]2[C@@H](O)C[C@H](O[C@H]3[C@@H](O)C[C@H](O[C@H]4CC[C@@]5(C)[C@H](CC[C@@H]6[C@@H]5C[C@@H](O)[C@]5(C)[C@@H](C7=CC(=O)OC7)CC[C@]65O)C4)O[C@@H]3C)O[C@@H]2C)C[C@H](O)[C@@H]1O [Digoxin] | – | – | – | – | Papp A→B at 2 h (P-gp [4]; Caco-2, pH 7.4, Efflux of digoxin A-B): 0.2 ×10⁻⁶ cm/s; Papp B→A at 2 h (P-gp [4]; Caco-2, pH 7.4, Efflux of digoxin B-A): 3.69 ×10⁻⁶ cm/s; Papp B→A at 2 h, 10 µM (P-gp [4]; Caco-2, pH 7.4, Papp B-A (Digoxin)): 8.24 ×10⁻⁶ cm/s |
